Values joined by “and” are separate entries in the source; they are usually repeats but may differ in a detail not shown here. Equal values may be shown once.

For 16 molecules, viability, T/C and IC50 results are on record in PubChem BioAssay AID2060623 (Molecular Pharmacology Branch, DTP, NCI, 2025).

The experiment relates to 227483-062-R1-J1-PDC complex spheroids with HUVEC/MSC, viability. The experiment is described as follows: Anticancer human tumor 227483-062-R1-J1-PDC patient-derived pancreatic carcinoma cell line growth inhibition [CLK]. The settings on record: for viability, T/C: stronger effect = lower value. The text has this:
A high-throughput screen of multi-cell type tumor spheroids was designed to identify active combinations of […] and targeted small molecules. Complex spheroids include a stromal component modeled by human endothelial cells (HUVEC) and fibroblasts modeled by human mesenchymal stem cells (MSCs). The concentration ranges selected for each drug and investigational agent were based upon clinically achievable concentrations if the clinical Cmax of the agent was known.
Compounds. The drugs and investigational agents: cirtuvivint (SM08502; NSC835563), CC-671 (NSC850746), vemurafenib (NSC761431), tapotoclax (NSC804041), sotorasib (NSC818433), adagrasib (NSC831453), MRTX-1133 (NSC836407), BAY2416964 (NSC825713), copanlisib (NSC816437), inavolisib (NSC800729), abemaciclib (NSC768073), osimertinib (NSC779217), entinostat (NSC756642), eltanexor (KPT-8602, NSC794443), venetoclax (NSC766270), ceralasertib (NSC777638), bortezomib (NSC756655), olaparib (NSC753686), talazoparib (NSC767125), alisertib (NSC759677), peposertib (NSC802822), gemcitabine (NSC613327), 5-fluorouracil (NSC19893), SN-38 (NSC673596), oxaliplatin (NSC266046), paclitaxel (NSC125973), and doxorubicin (NSC123127), were obtained from the National Cancer Institute (NCI) Developmental Therapeutics Program Chemical Repository. The FDA-approved anticancer drug set is available from the Developmental Therapeutics Program at https://dtp.cancer.gov/organization/dscb/obtaining/available plates.htm. […] The stock solutions were prepared in dimethyl sulfoxide (DMSO, Sigma-Aldrich, St. Louis, MO, cat. D2650), except for the platinum complexes which were prepared in saline (Quality Biological, Gaithersburg, MD, cat. 114-055-101), at 800-fold the tested concentration and stored at -70 degrees C prior to their use. All drugs and investigational agents were tested over a range starting from a high concentration at or near the clinical Cmax and decreasing in half-log increments. If the clinical Cmax for an agent had not been determined, the highest concentration tested was 10 microM.
Cell Culture. All cells were maintained in an incubator at 37 degrees C and 5% CO2 with 95% humidity. The PDC lines were cultured according to standard operating procedures established by the NCI PDMR. Briefly, all PDCs were thawed and cultured in Matrigel-coated flasks prepared with a working solution of 1X Ham's F-12 nutrient mix, without supplementation (Invitrogen, Waltham, MA, cat. 11765054), 100 U/mL penicillin-streptomycin (Invitrogen, cat. 15140122), and 2.5% Matrigel (Corning Inc., Corning, NY, cat. 354248) for the first three passages. The 947758-054-R-J2-PDC line was cultured in 6B/Colon 1A media, which includes advanced DMEM/F-12 (Thermo Fisher Scientific, cat. 12634028), 10 mM HEPES (Thermo Fisher Scientific, cat. 15630080), 1X GlutaMAX supplement (Thermo Fisher Scientific, cat. 35050061), 0.1 mg/mL primocin (InvivoGen, cat. ant-pm-2), 10% defined fetal bovine serum, heat inactivated (HyClone Laboratories Inc., cat. SH30070.03HI), 1.25 mM N-Acetyl-L-cysteine (Sigma-Aldrich, cat. A9165), 10 mM nicotinamide (Sigma-Aldrich, cat. N0636), 1X B-27 supplement (Thermo Fisher Scientific, cat. 17504044), 1X N-2 supplement (Thermo Fisher Scientific, cat. 17502048), and 10 microM Y-27632 dihydrochloride (Tocris Bioscience, cat. 1254). The 876862-298-R-J1-PDC was cultured in 6E media, which includes all 6B/Colon 1A media components plus 50% L-WRN conditioned media (ATCC, cat. CRL-3276), 50 ng/mL recombinant human EGF recombinant protein (hEGF; Thermo Fisher Scientific, cat. PHG0311), 10 ng/mL recombinant human fibroblast growth factor 10 (hGFG-10; PeproTech, cat. 100-26), 1 ng/mL recombinant human fibroblast growth factor 2 (hFGF-2; PeproTech, cat. 100-18B), and 1 µM prostaglandin E2 (PGE2; Tocris, cat. 2296). The 227483-062-R1-J1-PDC line was cultured in Panc media, containing all 6E components except hFGF-2, with the addition of 500 nM SB-431542 (Selleckchem, cat. S1067) and 10 nM gastrin (Tocris, cat. 3006). […]
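Also: spheroids exposed to compounds for seven days before readout.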
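For viability, T/C in this document: percent of DMSO vehicle control luminescence as 100% viability.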

Usually viability, T/C stands for the ratio of treated to control. As a reminder, the IC50 is the concentration at which inhibition is half-maximal. With `C#Cc1c(F)ccc2cc(O)cc(-c3ncc4c(N5CC6CCC(C5)N6)nc(OCC56CCCN5CC(F)C6)nc4c3F)c12` (stereo unspecified), the viability, T/C (compound 0.0316 µM) is 102% and 90.9%; the viability, T/C (compound 0.1 µM) was 93.7% and 102%; the viability, T/C (compound 0.316 µM) is 120% and 105%; the viability, T/C (compound 1 µM) was 130% and 104%; the viability, T/C (compound 3.16 µM) was 106% and 124%; the viability, T/C (compound 10 µM) is 98.6% and 78.4%. Moreover, where the note is “curve of compound”, the IC50 was over 10000 nM.
Consider `C=C(F)C(=O)N1CCN(c2nc(OCC3CCCN3C)nc3c2CCN(c2cccc4cccc(Cl)c24)C3)CC1CC#N` (stereo unspecified), for which the viability, T/C is 107% and 89.9% (compound 0.0316 µM); 108% and 97.9% (compound 0.1 µM); 109% and 91.9% (compound 0.316 µM); 113% and 122% (compound 1 µM); 86.3% and 89% (compound 3.16 µM); 19% and 28% (compound 10 µM). The IC50 (curve of compound) was 5880 nM and 6600 nM.
In the case of `C=CC(=O)N1CCN(c2nc(=O)n(-c3c(C)ccnc3C(C)C)c3nc(-c4c(O)cccc4F)c(F)cc23)C(C)C1` (stereo unspecified), the viability, T/C is 88.6% and 88% (compound 0.0316 µM); 83.2% and 92.8% (compound 0.1 µM); 86% and 85.4% (compound 0.316 µM); 95.2% and 125% (compound 1 µM); 110% and 104% (compound 3.16 µM); 109% and 95.8% (compound 10 µM). Also, for the setting “curve of compound”, the IC50 is over 10000 nM.
As to `C=CC(=O)Nc1cc(Nc2nccc(-c3cn(C)c4ccccc34)n2)c(OC)cc1N(C)CCN(C)C`, the viability, T/C (compound 0.000949 µM) is 99.8% and 83%; the viability, T/C (compound 0.003 µM) is 104% and 92.1%; the viability, T/C (compound 0.00949 µM) is 103% and 119%; the viability, T/C (compound 0.03 µM) is 113% and 109%; the viability, T/C (compound 0.0949 µM) is 95.1% and 102%; the viability, T/C (compound 0.3 µM) is 84.3% and 81.2%. In addition, for the setting “curve of compound”, the IC50 is over 300 nM.
On to `CC(C)CC(NC(=O)C(Cc1ccccc1)NC(=O)c1cnccn1)B(O)O` (stereo unspecified), for which the viability, T/C was 86.6% and 81.9% (compound 0.000949 µM); 2.59% and 1.33% (compound 0.003 µM); 0.56% and 0.57% (compound 0.00949 µM); 2.03% and 0.48% (compound 0.03 µM); 0.64% and 0.38% (compound 0.0949 µM); 0.96% and 0.35% (compound 0.3 µM). The IC50 (curve of compound) was 1.57 nM and 1.5 nM.
Take `CC(CO)NC(=O)c1cc(-c2ccc(Cl)cc2)nn(-c2cnn(C)c2)c1=O` (stereo unspecified): the viability, T/C by setting is: (compound 0.0316 µM) 100% and 88.3%; (compound 0.1 µM) 106% and 97.9%; (compound 0.316 µM) 95% and 100%; (compound 1 µM) 113% and 88.8%; (compound 3.16 µM) 88.7% and 108%; (compound 10 µM) 90.4% and 87%. For the same molecule, where the note is “curve of compound”, the IC50 is over 10000 nM.
In the case of `CC(Nc1ccc2c(c1)OCCn1cc(N3C(=O)OCC3C(F)F)nc1-2)C(N)=O` (stereo unspecified), the viability, T/C reads like this: (compound 0.0316 µM) 89.1% and 95.7%; (compound 0.1 µM) 104% and 89.6%; (compound 0.316 µM) 82.3% and 76.5%; (compound 1 µM) 82.4% and 85.9%; (compound 3.16 µM) 69.8% and 72.3%; (compound 10 µM) 82.9% and 69.1%. Under “curve of compound”, the IC50 is over 10000 nM.
Consider `CCCS(=O)(=O)Nc1ccc(F)c(C(=O)c2c[nH]c3ncc(-c4ccc(Cl)cc4)cc23)c1F`, for which the viability, T/C (compound 0.0316 µM) was 101% and 92.4%; the viability, T/C (compound 0.1 µM) was 128% and 96.7%; the viability, T/C (compound 0.316 µM) was 106% and 92.3%; the viability, T/C (compound 1 µM) was 125% and 99%; the viability, T/C (compound 3.16 µM) was 129% and 98.8%; the viability, T/C (compound 10 µM) is 107% and 80.7%. For the same molecule, the IC50 (curve of compound) is over 10000 nM.
Consider `CCN1CCN(Cc2ccc(Nc3ncc(F)c(-c4cc(F)c5nc(C)n(C(C)C)c5c4)n3)nc2)CC1`, for which the viability, T/C is, setting by setting: (compound 0.00316 µM) 93.6% and 83.6%; (compound 0.01 µM) 110% and 94.8%; (compound 0.0316 µM) 92.8% and 79.4%; (compound 0.1 µM) 98.2% and 76.2%; (compound 0.316 µM) 95.1% and 73.4%; (compound 1 µM) 88.3% and 82%. Where the note is “curve of compound”, the IC50 is over 1000 nM.
As for `CCc1c2c(nc3ccc(O)cc13)-c1cc3c(c(=O)n1C2)COC(=O)[C@]3(O)CC`, the viability, T/C (compound 0.00316 µM) was 77.7% and 88.3%; the viability, T/C (compound 0.01 µM) was 94.4% and 86.2%; the viability, T/C (compound 0.0316 µM) was 79.4% and 58.8%; the viability, T/C (compound 0.1 µM) was 55.3% and 49%; the viability, T/C (compound 0.316 µM) was 54.1% and 53%; the viability, T/C (compound 1 µM) was 36.8% and 33.1%. The half-maximal inhibitory concentration (IC50) (curve of compound) is 207 nM and 71.7 nM.
Take `CN1CCN(c2cc(C(=O)Nc3cc4cc(-c5cnn(C)c5)ccc4cn3)ccn2)CC1`: the viability, T/C (compound 0.0316 µM) was 95.7% [middle of 12 runs]; the viability, T/C (compound 0.1 µM) is 62.8% [middle of 12 runs]; the viability, T/C (compound 0.316 µM) is 5.79% [middle of 12 runs]; the viability, T/C (compound 1 µM) is 1.97% [middle of 12 runs]; the viability, T/C (compound 3.16 µM) was 3.33% [middle of 12 runs]; the viability, T/C (compound 10 µM) was 2.87% [middle of 12 runs]. Further, for the setting “compound alone, run of 09/18/2023”, the IC50 was 129 nM [middle of 11 runs].
In the case of `CNC(=O)c1ccc(Nc2nc(OC3CCCC3)c3c(-c4ccc5nc(C)oc5c4)c[nH]c3n2)c(OC)c1`, the viability, T/C is 96.1% [middle of 12 runs] (compound 0.0316 µM); 88.2% [middle of 12 runs] (compound 0.1 µM); 85.1% [middle of 12 runs] (compound 0.316 µM); 61.6% [middle of 11 runs] (compound 1 µM); 45.4% [middle of 12 runs] (compound 3.16 µM); 42.9% [middle of 12 runs] (compound 10 µM).
Consider `COC1C=CCC(C)C(C)S(=O)(=O)NC(=O)c2ccc3c(c2)N(CC2CCC21)CC1(CCCc2cc(Cl)ccc21)CO3` (stereo unspecified), for which the viability, T/C is, setting by setting: (compound 0.0316 µM) 93.6% and 86.3%; (compound 0.1 µM) 93.9% and 81.1%; (compound 0.316 µM) 95.4% and 95.6%; (compound 1 µM) 106% and 91.1%; (compound 3.16 µM) 97.3% and 83.1%; (compound 10 µM) 25.9% and 22.8%. Moreover, for the setting “curve of compound”, the IC50 is 6770 nM and 5960 nM.
As to `COc1c(OCCCN2CCOCC2)ccc2c3n(c(=NC(=O)c4cnc(N)nc4)nc12)CCN3`, the viability, T/C is 92.4% and 100% (compound 0.00316 µM); 90.7% and 83.8% (compound 0.01 µM); 85% and 72.6% (compound 0.0316 µM); 56.2% and 75.9% (compound 0.1 µM); 55.8% and 59.5% (compound 0.316 µM); 45.3% and 40.5% (compound 1 µM). In addition, the 50% inhibitory concentration (IC50) (curve of compound) was > 1000 nM and 575 nM.
Take `Cn1ncnc1[C@H]1c2n[nH]c(=O)c3cc(F)cc(c23)N[C@@H]1c1ccc(F)cc1`: the viability, T/C by setting is: (compound 0.000316 µM) 93.6% and 98%; (compound 0.001 µM) 127% and 115%; (compound 0.00316 µM) 91.9% and 102%; (compound 0.01 µM) 120% and 97%; (compound 0.0316 µM) 110% and 101%; (compound 0.1 µM) 104% and 98%. The IC50 (curve of compound) was over 100 nM.
Consider `NC(=O)C(=Cn1cnc(-c2cc(C(F)(F)F)cc(C(F)(F)F)c2)n1)c1cncnc1`, for which the viability, T/C reads like this: (compound 0.00949 µM) 78.8% and 82.5%; (compound 0.03 µM) 85.2% and 85.8%; (compound 0.0949 µM) 83.2% and 62.7%; (compound 0.3 µM) 87.1% and 54.1%; (compound 0.949 µM) 48.8% and 28%; (compound 3 µM) 15% and 10.8%. Besides, for the setting “curve of compound”, the IC50 was 911 nM and 313 nM.
